The target in this experiment is T1, human V1a receptor (Homo sapiens, UniProt P37288).
T1 construct: expressed in transfected cells; host or cells: HEK293 cells, transiently transfected; cell membranes
T1 sequence (P37288 whole entry): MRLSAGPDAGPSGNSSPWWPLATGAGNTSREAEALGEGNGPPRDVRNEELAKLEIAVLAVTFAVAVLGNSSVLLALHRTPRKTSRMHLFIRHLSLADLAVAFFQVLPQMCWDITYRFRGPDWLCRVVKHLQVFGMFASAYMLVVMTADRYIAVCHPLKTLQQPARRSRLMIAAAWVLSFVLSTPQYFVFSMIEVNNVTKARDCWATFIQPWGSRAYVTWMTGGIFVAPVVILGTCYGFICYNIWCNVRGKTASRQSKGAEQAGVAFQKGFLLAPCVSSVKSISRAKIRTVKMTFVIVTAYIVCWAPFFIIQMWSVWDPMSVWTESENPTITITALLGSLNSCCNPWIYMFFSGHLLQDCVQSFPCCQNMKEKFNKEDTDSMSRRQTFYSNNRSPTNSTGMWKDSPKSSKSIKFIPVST
Nature of the experiment: human V1a receptor binding (3H-Vasopressin SPA, membranes of transfected HEK293 cells). As to conditions: HEK293 cell membranes, Ki by Cheng-Prussoff equation, read-out: pKi hV1a (converted). The procedure: The human V1a receptor was cloned by RT-PCR from total human liver RNA. The coding sequence was subcloned in an expression vector after sequencing to confirm the identity of the amplified sequence. […] Cell membranes were prepared from HEK293 cells transiently transfected with the expression vector and grown in 20 liter fermenters with the following protocol.
50 g of cells are resuspended in 30 ml freshly prepared ice cold Lysis buffer (50 mM HEPES, 1 mM EDTA, 10 mM MgCl2 adjusted to pH=7.4+complete cocktail of protease inhibitor (Roche Diagnostics)). Homogenized with Polytron for 1 min and sonicated on ice for 2×2 minutes at 80% intensity (Vibracell sonicator). The preparation is centrifuged 20 min at 500 g at 4° C., the pellet is discarded and the supernatant centrifuged 1 hour at 43′000 g at 4° C. (19,000 rpm). The pellet is resuspended in 12.5 ml Lysis buffer+12.5 ml Sucrose 20% and homogenized using a Polytron for 1-2 min. The protein concentration is determined by the Bradford method and aliquots are stored at −80° C. until use. For binding studies 60 mg Yttrium silicate SPA beads (Amersham) are mixed with an aliquot of membrane in binding buffer (50 mM Tris, 120 mM NaCl, 5 mM KCl, 2 mM CaCl2, 10 mM MgCl2) for 15 minutes with mixing. 50 μl of bead/membrane mixture is then added to each well of a 96 well plate, followed by 50 μl of 4 nM 3H-Vasopressin (American Radiolabeled Chemicals). For total binding measurement 100 μl of binding buffer are added to the respective wells, for non-specific binding 100 μl of […] cold vasopressin and for compound testing 100 μl of a serial dilution of each compound in 2% DMSO. The plate is incubated 1 h at room temperature, centrifuged 1 min at 1000 g and counted on a Packard Top-Count. Non-specific binding counts are subtracted from each well and data is normalized to the maximum specific binding set at 100%. To calculate an IC 50 the curve is fitted using a non-linear regression model (XLfit) and the Ki is calculated using the Cheng-Prussoff equation.
Consider `Cc1cc([C@H]2CC[C@H](c3nnc4n3-c3ccc(Cl)cc3COC4)CC2)no1` [Example 4, 8-Chloro-1-[4-(5-methyl-isoxazol-3-yl)-cyclohexyl]-4H,6H-5-oxa-2,3,10b-triaza-benzo[e]azulene], for which the Ki was 3.98 nM. The figure for `CC(C)C[C@H]1CC[C@H](c2nnc3n2-c2ccc(Cl)cc2COC3)CC1` [Example 9, 8-Chloro-1-(4-isobutyl-cyclohexyl)-4H,6H-oxa-2,3,10b-triaza-benzo[e]azulene] is 25.7 nM. In the case of `FC(F)(C1CCCC1)[C@H]1CC[C@H](c2nnc3n2-c2ccc(Cl)cc2COC3)CC1` [Example 8, 8-Chloro-1-[4-(cyclopentyl-difluoro-methyl)-cyclohexyl]-4H,6H-5-oxa-2,3,10b-triaza-benzo[e]azulene], the Ki was 2.4 nM. The figure for `Fc1cccnc1[C@H]1CC[C@H](c2nnc3n2-c2ccc(Cl)cc2COC3)CC1` [Example 1] is 2.4 nM; for `Clc1ccc2c(c1)COCc1nnc([C@H]3CC[C@H](c4onc5c4CCCC5)CC3)n1-2` [Example 5, 8-Chloro-1-[4-(4,5,6,7-tetrahydro-benzo[c]isoxazol-3-yl)-cyclohexyl]-4H,6H-5-oxa-2,3,10b-triaza-benzo[e]azulene] it is 15.5 nM. The figure for `Clc1ccc2c(c1)COCc1nnc([C@H]3CC[C@H](c4nsc5ccccc54)CC3)n1-2` [Example 3, 1-(4-Benzo[d]isothiazol-3-yl-cyclohexyl)-8-chloro-4H,6H-5-oxa-2,3,10b-triaza-benzo[e]azulene] is 0.288 nM; for `Clc1ccc2c(c1)COCc1nnc([C@H]3CC[C@H](c4n[nH]c5c4CCCC5)CC3)n1-2` [Example 6, 8-Chloro-1-[4-(4,5,6,7-tetrahydro-1H-indazol-3-yl)-cyclohexyl]-4H,6H-5-oxa-2,3,10b-triaza-benzo[e]azulene] it is 4.9 nM.

Take `Cc1nc([C@H]2CC[C@H](c3nnc4n3-c3ccc(Cl)cc3COC4)CC2)no1` [Example 7, 8-Chloro-1-[4-(5-methyl-[1,2,4]oxadiazol-3-yl)-cyclohexyl]-4H,6H-5-oxa-2,3,10b-triaza-benzo[e]azulene]: the Ki was 32.4 nM.

Consider `Clc1ccc2c(c1)COCc1nnc([C@H]3CC[C@H](c4noc5ccccc54)CC3)n1-2` [Example 2, 1-(4-Benzo[d]isoxazol-3-yl-cyclohexyl)-8-chloro-4H,6H-5-oxa-2,3,10b-triaza-benzo[e]azulene], for which the Ki was 7.41 nM.

The values above are taken from patent publication US9346824B2, “Cyclohexyl-4H,6H-5-oxa-2,3,10b-triaza-benzo[e]azulenes as V1a antagonists” (Hoffmann-La Roche Inc., priority 2011, dated 2016).
